Assay [1] deals with T1, ALDH1A3 (Homo sapiens, UniProt P47895).
T1 sequence (P47895 1-512): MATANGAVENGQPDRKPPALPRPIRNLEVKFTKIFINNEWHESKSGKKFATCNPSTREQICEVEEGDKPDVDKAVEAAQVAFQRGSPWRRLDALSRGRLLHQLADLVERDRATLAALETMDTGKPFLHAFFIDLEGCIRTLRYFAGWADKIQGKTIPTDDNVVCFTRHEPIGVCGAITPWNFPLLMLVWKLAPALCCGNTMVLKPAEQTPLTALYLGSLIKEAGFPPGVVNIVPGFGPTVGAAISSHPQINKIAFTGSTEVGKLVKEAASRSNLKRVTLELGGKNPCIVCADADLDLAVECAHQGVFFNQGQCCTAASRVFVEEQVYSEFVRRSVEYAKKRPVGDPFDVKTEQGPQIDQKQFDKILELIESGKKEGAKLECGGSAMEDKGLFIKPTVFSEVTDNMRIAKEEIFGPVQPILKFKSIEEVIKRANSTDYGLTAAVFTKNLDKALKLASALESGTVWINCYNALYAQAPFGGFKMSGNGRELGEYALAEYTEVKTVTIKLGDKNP
The experiment in a line: Primary biochemical assay, NAD(P)H-Glo Detection System. The conditions noted are these: 30 min pre-incubation, propionaldehyde and NAD at Km. Also on record: His-tag; made in house; host or cells: E. coli Rosetta (DE3). An excerpt:
(§1) Cloning: Open reading frames corresponding to the protein coding sequences of full length human ALDH1A1 (Uniprot ID P00352), ALDH1A2 (094788) and ALDH1A3 (P47895) were polymerase chain reaction (PCR) amplified from human cDNA and inserted into the multi-cloning sites of the commercially available (Novagen) E. coli expression vectors pET47b (ALDH1A1, EcoRI restriction site; ALDH1A2, BamHI and EcoRI sites) or pET28a (ALDH1A3, NdeI and BamHI sites), using standard molecular genetic techniques. Recombinant DNA products were sequence verified prior to use in expression studies.
(§2) Expression: Expression constructs were transformed into the E. coli strain Rosetta (DE3) (Merck) and individual colonies used to inoculate 10 mL lysogen broth (LB) medium supplemented with kanamycin and chloramphenicol at 50 μg/mL and 34 μg/mL, respectively. Cultures were grown to saturation overnight at 37° C., prior to being used to sub-inoculate fresh 1 L LB medium cultures (plus antibiotics, as before). 1 L cultures were grown at 37° C., 200 rpm, throughout the day until the optical density at 600 nm (OD600) reached ˜0.8, at which point growth temperature was reduced to 18° C. and 1 mM isopropyl β-d-1-thiogalacto pyranoside (IPTG) added to induce protein expression.
(§3) Cultures were left overnight (at least 16 h) under these conditions and the following day harvested by centrifugation (4000 G, 10 minutes). Culture supernatant was discarded and cell pellets stored at −80° C. until further processing.
(§4) Purification: Cell pellets were thawed on ice, re-suspended in Ni Affinity Buffer A (20 mM HEPES pH 7.5, 300 mM NaCl, 20 mM imidazole, 1 mM tris(2-carboxyethyl)phosphine (TCEP)) with protease inhibitors (cOmplete Ultra protease inhibitor, Roche), and lysed by sonication. Lysates were clarified by centrifugation at 18,000 G, 4° C., for 40 minutes, and loaded directly onto a pre-equilibrated (Buffer A) 5 mL HisTrap Fast Flow column (GE Healthcare) by way of an AKTA Fast Protein Liquid Chromatography (FPLC) system. The column was sequentially treated with 6 column volumes (CV) 100% Buffer A, 8 CV of 90% Buffer A:10% Buffer B (20 mM 4-(2-hydroxyethyl)-1-piperazineethanesulfonic acid (HEPES) pH 7.5, 300 mM NaCl, 500 mM imidazole, 1 mM TCEP) and finally a linear gradient from 10-70% Buffer B over 8 CV to elute recombinant His-tagged protein. Relevant fractions (as measured by 280 nm absorbance) collected during elution were pooled and subjected to further purification by size exclusion chromatography (Superdex 200 26/600, GE Healthcare, running buffer 20 mM 2-(carbamoylmethylamino)ethanesulfonic acid (ACES) pH 7.5, 1 mM TCEP). Relevant fractions from this step were pooled, aliquoted, and stored at −80° C. until required for compound profiling assays.
(§5) Materials: ALDH2 was purchased from Abnova. Tris(hydroxymethyl)aminomethane (Tris) was purchased from MP Biomedicals. TCEP, ethylenediaminetetraacetic acid (EDTA), propionaldehyde, DMSO and Tween-20 were purchased from Sigma. Nicotinamide adenine dinucleotide (NAD) was obtained from Abcam. The NAD(P)H-Glo™ Detection System was purchased from Promega. White, non-binding surface, 384 well plates were supplied by Corning (#3574).
(§6) Method: Inhibition of ALDH1A3 was assessed using the NAD(P)H-Glo™ Detection System (Cat. No. G9062) from Promega. This assay detects the production of NADH from NAD by ALDH1A3 via the coupled enzymatic conversion of a proluciferin reductase substrate to generate a luminescent signal. Inhibition of ALDH1A3 by small molecule inhibitors will result in reduction or abrogation of luminescence signal increase above background. Inhibition of ALDH1A1, ALDH1A2 and ALDH2 (selectivity assays) were assessed using the same assay.
(§7) Compounds were dosed into Corning 384 well assay plates using an Echo acoustic dispenser to give 10 point curves in a 3-fold dilution series. Compounds were dispensed from a 20 mM DMSO stock and initially screened at a top concentration of 20 μM (ALDH1A3) or 250 μM (ALDH1A1, ALDH1A2 & ALDH2). […]

In assay [2] the target is T1, ALDH1A3. The assay can be described thus: ALDH1A3 cellular assay (ALDEFLUOR) in WM266.4 melanoma cells. It counts as cell-based. Conditions: WM266.4 cells; 60 min incubation; percentage of ALDH-positive cells. An excerpt: Materials: WM266.4 cells were procured from ATCC. (WM266-4 is a metastatic human melanoma cell line.) The ALDEFLUOR™ Assay kit (cat. no. 01700) and Aldefluor buffer (cat. no. 01702) were procured from StemCell Technologies. Dulbecco's Modified Eagle Medium (DMEM), FluoroBrite DMEM, Glutamax and Hoechst 33342 were purchased from ThermoFisher. Verapamil was obtained from Fluorochem. FBS was obtained from Sigma. Echo Qualified 384-well low-dead-volume microplate and Echo Qualified 384-well polypropylene microplate were purchased from Labcyte, and the Microclear black sterile polystyrene microplate from Greiner Bio-One.
Method: Intracellular inhibition of ALDH1A3 was assessed using the ALDEFLUOR™ Assay kit. The activated ALDEFLUOR™ reagent, BODIPY-aminoacetaldehyde (BAAA), is a fluorescent non-toxic substrate for ALDH enzymes, which freely diffuses into intact and viable cells. In the presence of ALDH enzyme activity, BAAA is converted into BODIPY-aminoacetate (BAA), which is retained inside the cells. The amount of fluorescent reaction product is proportional to the ALDH activity in the cells and is measured using an imaging cytometer. Active efflux of the reaction product is inhibited by an efflux inhibitor (Verapamil) in the ALDEFLUOR™ Assay Buffer.
A frozen vial of cells was recovered into a T225 flask containing DMEM, high glucose, 10% FBS, 1% glutamax, 1% HEPES. The following day, media was changed and cells were ready for assay from 72 hours after recovery. Cells were transferred into FluoroBrite DMEM (plus 10% FBS, 1% glutamax and 1% HEPES) and diluted to 2.5×10^5 cells/mL. 30 μL of cells were added to each well to give 7500 cells/well and then incubated overnight at 37° C., 5% CO2. After overnight incubation, the media was aspirated and replaced by 20 μL substrate/Hoechst buffer solution. Each plate requires 9 mL of solution comprising, 9 mL ALDEFLUOR assay buffer, 18 μL BAAA substrate (final concentration 500 nM), 4.5 μL Hoechst 33342 (final concentration 5 μg/mL) and 4.5 μL Verapamil (final concentration 50 μM). Compounds were prepared for dosing using the Echo acoustic dispenser by aliquoting into a source plate and dosed directly onto the cell assay plate to give a 10 point dose response per compound ranging from 10 μM to 0.0005 μM final concentration in 3-fold dilution steps. Plates were then incubated for 60 minutes at 37° C., 5% CO2. The buffer was then aspirated and cells washed twice in ice-cold PBS. Plates were kept on ice and 30 μL of cold Aldefluor buffer with 50 μM verapamil dispensed per well. The plates were then imaged using the CellInsight fluorescent microscope. Hoechst fluorescence in the 405 nm channel indicated the nuclear area and this was used to define nuclei and then the surrounding cellular area. Fluorescence in the 488 nm channel of the defined cellular area indicates ALDH1A3 activity. The percentage of cells positive for ALDH activity was plotted versus compound concentration to generate EC50 values using curve fitting parameters defined in Dotmatics software.

In a further assay the target is T2, ALDH1A1 (Homo sapiens, UniProt P00352).
T2 construct: His-tag; made in house; host or cells: E. coli Rosetta (DE3)
T2 sequence (P00352 1-501): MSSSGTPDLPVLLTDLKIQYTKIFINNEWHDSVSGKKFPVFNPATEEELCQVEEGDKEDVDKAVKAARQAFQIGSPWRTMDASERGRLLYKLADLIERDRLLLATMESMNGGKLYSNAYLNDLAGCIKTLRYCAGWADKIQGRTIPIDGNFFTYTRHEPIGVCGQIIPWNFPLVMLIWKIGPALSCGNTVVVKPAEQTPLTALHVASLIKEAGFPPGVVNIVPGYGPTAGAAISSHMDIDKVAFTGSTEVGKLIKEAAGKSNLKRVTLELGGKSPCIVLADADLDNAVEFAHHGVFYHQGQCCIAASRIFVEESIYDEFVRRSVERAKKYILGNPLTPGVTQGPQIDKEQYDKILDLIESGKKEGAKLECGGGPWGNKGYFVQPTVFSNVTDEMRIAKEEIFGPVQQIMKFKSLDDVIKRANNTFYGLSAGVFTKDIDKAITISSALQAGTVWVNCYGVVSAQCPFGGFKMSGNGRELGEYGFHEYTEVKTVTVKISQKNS
The assay can be described thus: Selectivity biochemical assay, NAD(P)H-Glo Detection System.
Excerpt: as §1, §2, §3, §4, §5, §6, §7

Consider `O=C1CCc2cc(NC(=O)c3ncccc3-c3cccc(F)c3)ccc2N1` [ALDHI-1020, 3-(3-fluorophenyl)-N-(2-oxo-3,4-dihydro-1H-quinolin-6-yl)pyridine-2-carboxamide], for which the IC50 at ALDH1A3 [1] and against ALDH1A3 [2] was 1 to 10 µM throughout.

Regarding `O=C1CCc2cc(OCCN3CCNCC3c3ccccc3)ccc2N1` (centres unmarked) [ALDHI-2036, 6-[2-(2-phenylpiperazin-1-yl)ethoxy]-3,4-dihydro-1H-quinolin-2-one], the IC50 on ALDH1A3 [1] was 1 to 10 µM; against ALDH1A1, no less than 100 µM.

With `CN(CCOc1ccc2c(c1)CCC(=O)N2)Cc1cnn(C)c1` [ALDHI-3009, 6-[2-[methyl-[(1-methylpyrazol-4-yl)methyl]amino]ethoxy]-3,4-dihydro-1H-quinolin-2-one], the IC50 was 1 to 10 µM at ALDH1A3 [1] and 10 to 100 µM against ALDH1A1.

As to `O=C1CCc2cc(NC(=O)c3scnc3-c3cccc(F)c3)c(F)cc2N1` [ALDHI-1025, N-(7-fluoro-2-oxo-3,4-dihydro-1H-quinolin-6-yl)-4-(3-fluorophenyl)thiazole-5-carboxamide], the IC50 against ALDH1A3 [1] was less than 0.1 µM; against ALDH1A1, no less than 100 µM.

The IC50 is the concentration at which inhibition is half-maximal. The low end stands for greater potency in that assay, the high end for weaker potency in that assay.

The record behind these values is US20240174634A1, “Aldehyde Dehydrogenase Inhibitors and Their Therapeutic Use” (priority 2020, published 2024).
